How the values were obtained:
[1] = Metal ion oxidative effects on sincalide with/without DTPA (RP-HPLC); format: physicochemical; details: analyzed within 8 hours
Protocol: Experiments were performed to determine whether these residues, as present in sincalide, were susceptible to oxidation by free metals. These experiments also examined the role of DTPA as a formulation excipient to chelate metals and thereby inhibit sincalide oxidation. FIGS. 2-4 show the three oxidized forms of sincalide containing either mono- or disulfoxides.
The experimental formulation (25 mL) solution with (+) and without (−) DTPA were individually spiked with nine metal ions, as summarized in Table 7.
Copper and manganese, in the absence of DTPA, have the greatest oxidative effect on the methionine residues of sincalide resulting in combined weight percentages of Met 3 and Met 6 monosulfoxides (vs sincalide) of 85.5 and 128.9, respectively. In addition to the presence of sincalide Met 3 and Met 6 monosulfoxides (tR≈14.8 min. {doublet} and tR≈18 min.), formation of sincalide disulfoxide (tR≈6.5 min.) was also noted in the cases of copper and manganese, but not with the other metals.

[2] = test system: gallbladder; details: patients pretreated before hepatobiliary imaging; typical; cited from earlier work

combined percentages of Met 3 and Met 6 monosulfoxides (vs sincalide) ([1]; experimental formulation without DTPA spiked with copper (0.63 mM Cu2+)): 85.5% | combined percentages of Met 3 and Met 6 monosulfoxides (vs sincalide) ([1]; experimental formulation without DTPA spiked with manganese (0.18 mM Mn2+)): 128.9%
Structure (SMILES): CSCC[C@H](NC(=O)[C@H](Cc1ccc(OS(=O)(=O)O)cc1)NC(=O)[C@@H](N)CC(=O)O)C(=O)NCC(=O)N[C@@H](Cc1c[nH]c2ccccc12)C(=O)N[C@@H](CCSC)C(=O)N[C@@H](CC(=O)O)C(=O)N[C@@H](Cc1ccccc1)C(N)=O [Sincalide, 1-De(5-oxo-L-glutamine-5-L-proline)-2-de-L-methioninecaerulein]
time to gallbladder contraction after sincalide injection [2]: ≤ 15 min

— patent US6803046B2, “Sincalide formulations” (Bracco International B.V., priority 2002, dated 2004)
